{
  "source": "patent US20260285850A1",
  "about": "“SUBSTITUTED OXAZOLIDINONES AND IMIDAZOLINONES AS HERBICIDES” (FMC CORPORATION, priority 2023, published 2026)",
  "type_in_all_cases": "in vivo",
  "key": {"[1]": {"test_system": "barnyardgrass (Echinochloa crus-galli)", "experiment": "Test A preemergence soil spray, visual injury rating 0-100", "settings": "10 days", "summary_of_the_method": "(§1)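 Grow plants in loam soil blended with sand. Apply formulated compound (non-phytotoxic solvent, surfactant) as a directed soil spray before emergence, or to plants at the one- to two-leaf stage after emergence. Hold in greenhouse 10 days, then rate injury visually versus untreated controls on a 0-100 scale.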"}, "[2]": {"test_system": "blackgrass (Alopecurus myosuroides)", "experiment": "Test A preemergence soil spray, visual injury rating 0-100", "settings": "10 days", "summary_of_the_method": "as §1"}, "corn (Zea mays) [3]": {"test_system": "corn (Zea mays)", "experiment": "Test A preemergence soil spray, visual injury rating 0-100", "settings": "10 days", "summary_of_the_method": "as §1"}, "[4]": {"test_system": "green foxtail (Setaria viridis)", "experiment": "Test A preemergence soil spray, visual injury rating 0-100", "settings": "10 days", "summary_of_the_method": "as §1"}, "kochia (Bassia scoparia) [5]": {"test_system": "kochia (Bassia scoparia)", "experiment": "Test A preemergence soil spray, visual injury rating 0-100", "settings": "10 days", "summary_of_the_method": "as §1"}, "[6]": {"test_system": "oat, wild (wild oat, Avena fatua)", "experiment": "Test A preemergence soil spray, visual injury rating 0-100", "settings": "10 days", "summary_of_the_method": "as §1"}, "[7]": {"test_system": "palmer (palmer amaranth, palmer pigweed, Amaranthus palmeri)", "experiment": "Test A preemergence soil spray, visual injury rating 0-100", "settings": "10 days", "summary_of_the_method": "as §1"}, "[8]": {"test_system": "ragweed (common ragweed, Ambrosia artemisiifolia)", "experiment": "Test A preemergence soil spray, visual injury rating 0-100", "settings": "10 days", "summary_of_the_method": "as §1"}, "[9]": {"test_system": "ryegrass, Italian (italian ryegrass, Lolium multiflorum)", "experiment": "Test A preemergence soil spray, visual injury rating 0-100", "settings": "10 days", "summary_of_the_method": "as §1"}, "soybean (Glycine max) [10]": {"test_system": "soybean (Glycine max)", "experiment": "Test A preemergence soil spray, visual injury rating 0-100", "settings": "10 days", "summary_of_the_method": "as §1"}, "[11]": {"test_system": "wheat (Triticum aestivum)", "experiment": "Test A preemergence soil spray, visual injury rating 0-100", "settings": "10 days", "summary_of_the_method": "as §1"}, "[12]": {"test_system": "barnyardgrass (Echinochloa crus-galli)", "experiment": "Test A postemergence application, visual injury rating 0-100", "summary_of_the_method": "as §1"}, "[13]": {"test_system": "blackgrass (Alopecurus myosuroides)", "experiment": "Test A postemergence application, visual injury rating 0-100", "summary_of_the_method": "as §1"}, "corn (Zea mays) [14]": {"test_system": "corn (Zea mays)", "experiment": "Test A postemergence application, visual injury rating 0-100", "summary_of_the_method": "as §1"}, "[15]": {"test_system": "galium (catchweed bedstraw, Galium aparine)", "experiment": "Test A postemergence application, visual injury rating 0-100", "summary_of_the_method": "as §1"}, "[16]": {"test_system": "green foxtail (Setaria viridis)", "experiment": "Test A postemergence application, visual injury rating 0-100", "summary_of_the_method": "as §1"}, "[17]": {"test_system": "horseweed (Erigeron canadensis)", "experiment": "Test A postemergence application, visual injury rating 0-100", "summary_of_the_method": "as §1"}, "kochia (Bassia scoparia) [18]": {"test_system": "kochia (Bassia scoparia)", "experiment": "Test A postemergence application, visual injury rating 0-100", "summary_of_the_method": "as §1"}, "[19]": {"test_system": "oat, wild (wild oat, Avena fatua)", "experiment": "Test A postemergence application, visual injury rating 0-100", "summary_of_the_method": "as §1"}, "[20]": {"test_system": "palmer (palmer amaranth, palmer pigweed, Amaranthus palmeri)", "experiment": "Test A postemergence application, visual injury rating 0-100", "summary_of_the_method": "as §1"}, "[21]": {"test_system": "ragweed (common ragweed, Ambrosia artemisiifolia)", "experiment": "Test A postemergence application, visual injury rating 0-100", "summary_of_the_method": "as §1"}, "[22]": {"test_system": "ryegrass, Italian (italian ryegrass, Lolium multiflorum)", "experiment": "Test A postemergence application, visual injury rating 0-100", "summary_of_the_method": "as §1"}, "soybean (Glycine max) [23]": {"test_system": "soybean (Glycine max)", "experiment": "Test A postemergence application, visual injury rating 0-100", "summary_of_the_method": "as §1"}, "[24]": {"test_system": "wheat (Triticum aestivum)", "experiment": "Test A postemergence application, visual injury rating 0-100", "summary_of_the_method": "as §1"}, "[25]": {"test_system": "barnyardgrass (Echinochloa crusgalli)", "experiment": "Test B flooded paddy test, visual plant response rating 0-100", "settings": "250 g ai/ha, Flood, applied to paddy water, evaluated after 13 days", "summary_of_the_method": "(§2)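 Plants were grown to the 2-leaf stage, then pots were flooded to 3 cm above the soil and test compounds were applied directly into the paddy water. Water depth was held there throughout; after 13 days in a greenhouse, injury was scored visually against untreated controls.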"}, "[26]": {"test_system": "ducksalad (Heteranthera limosa)", "experiment": "Test B flooded paddy test, visual plant response rating 0-100", "settings": "250 g ai/ha, Flood, applied to paddy water, evaluated after 13 days", "summary_of_the_method": "as §2"}, "rice (Oryza sativa)": {"test_system": "rice (Oryza sativa)", "experiment": "Test B flooded paddy test, visual plant response rating 0-100", "settings": "250 g ai/ha, Flood, applied to paddy water, evaluated after 13 days", "summary_of_the_method": "as §2"}, "[27]": {"test_system": "sedge, umbrella (small-flower umbrella sedge, Cyperus difformis)", "experiment": "Test B flooded paddy test, visual plant response rating 0-100", "settings": "250 g ai/ha, Flood, applied to paddy water, evaluated after 13 days", "summary_of_the_method": "as §2"}, "[28]": {"settings": "62 g ai/ha, 0 = no effect, 100 = complete control"}, "[29]": {"settings": "62 g ai/ha, postemergence, 10 days, 0 = no effect, 100 = complete control"}, "[30]": {"settings": "Postemergence, 16 g ai/ha, greenhouse 10 days, 0 no effect, 100 complete control"}},
  "data": [
    {"smiles": "CC1(C(=O)NC2CC(C(=O)O)C2)CN(c2cc(F)cc(F)c2)C(=O)O1", "note": "(stereo not shown) [Compound 119]", "values": [
      {"measurement": "Barnyardgrass plant response rating", "setting": "[1]; 16 g ai/ha, 0 to 100 scale", "result": 0},
      {"measurement": "Barnyardgrass plant response rating (0-100)", "setting": "[1]; [28]", "result": 80},
      {"measurement": "Blackgrass plant response rating", "setting": "[2]; 16 g ai/ha, 0 to 100 scale", "result": 40},
      {"measurement": "Blackgrass plant response rating (0-100)", "setting": "[2]; [28]", "result": 80},
      {"measurement": "Corn plant response rating", "setting": "corn (Zea mays) [3]; 16 g ai/ha, 0 to 100 scale", "result": 20},
      {"measurement": "Corn plant response rating (0-100)", "setting": "corn (Zea mays) [3]; [28]", "result": 70},
      {"measurement": "Foxtail, Green plant response rating", "setting": "[4]; 16 g ai/ha, 0 to 100 scale", "result": 20},
      {"measurement": "Foxtail, Green plant response rating (0-100)", "setting": "[4]; [28]", "result": 90},
      {"measurement": "Kochia plant response rating", "setting": "kochia (Bassia scoparia) [5]; 16 g ai/ha, 0 to 100 scale", "result": 0},
      {"measurement": "Kochia plant response rating (0-100)", "setting": "kochia (Bassia scoparia) [5]; [28]", "result": 80},
      {"measurement": "Oat, Wild plant response rating", "setting": "[6]; 16 g ai/ha, 0 to 100 scale", "result": 90},
      {"measurement": "Oat, Wild plant response rating (0-100)", "setting": "[6]; [28]", "result": 90},
      {"measurement": "Pigweed, Palmer plant response rating", "setting": "[7]; 16 g ai/ha, 0 to 100 scale", "result": 10},
      {"measurement": "Pigweed, Palmer plant response rating (0-100)", "setting": "[7]; [28]", "result": 10},
      {"measurement": "Ragweed plant response rating", "setting": "[8]; 16 g ai/ha, 0 to 100 scale", "result": 0},
      {"measurement": "Ragweed plant response rating (0-100)", "setting": "[8]; [28]", "result": 0},
      {"measurement": "Ryegrass, Italian plant response rating", "setting": "[9]; 16 g ai/ha, 0 to 100 scale", "result": 30},
      {"measurement": "Ryegrass, Italian plant response rating (0-100)", "setting": "[9]; [28]", "result": 80},
      {"measurement": "Soybean plant response rating", "setting": "soybean (Glycine max) [10]; 16 g ai/ha, 0 to 100 scale", "result": 0},
      {"measurement": "Soybean plant response rating (0-100)", "setting": "soybean (Glycine max) [10]; [28]", "result": 20},
      {"measurement": "Wheat plant response rating", "setting": "[11]; 16 g ai/ha, 0 to 100 scale", "result": 10},
      {"measurement": "Wheat plant response rating (0-100)", "setting": "[11]; [28]", "result": 60},
      {"measurement": "Barnyardgrass plant response rating (0-100)", "setting": "[12]; [29]", "result": 100},
      {"measurement": "Barnyardgrass plant response rating (0 to 100 scale)", "setting": "[12]; [30]", "result": 70},
      {"measurement": "Blackgrass plant response rating (0-100)", "setting": "[13]; [29]", "result": 100},
      {"measurement": "Blackgrass plant response rating (0 to 100 scale)", "setting": "[13]; [30]", "result": 80},
      {"measurement": "Corn plant response rating (0-100)", "setting": "corn (Zea mays) [14]; [29]", "result": 100},
      {"measurement": "Corn plant response rating (0 to 100 scale)", "setting": "corn (Zea mays) [14]; [30]", "result": 100},
      {"measurement": "Galium plant response rating (0-100)", "setting": "[15]; [29]", "result": 60},
      {"measurement": "Galium plant response rating (0 to 100 scale)", "setting": "[15]; [30]", "result": 20},
      {"measurement": "Foxtail, Green plant response rating (0-100)", "setting": "[16]; [29]", "result": 90},
      {"measurement": "Foxtail, Green plant response rating (0 to 100 scale)", "setting": "[16]; [30]", "result": 70},
      {"measurement": "Horseweed plant response rating (0-100)", "setting": "[17]; [29]", "result": 0},
      {"measurement": "Horseweed plant response rating (0 to 100 scale)", "setting": "[17]; [30]", "result": 0},
      {"measurement": "Kochia plant response rating (0-100)", "setting": "kochia (Bassia scoparia) [18]; [29]", "result": 80},
      {"measurement": "Kochia plant response rating (0 to 100 scale)", "setting": "kochia (Bassia scoparia) [18]; [30]", "result": 10},
      {"measurement": "Oat, Wild plant response rating (0-100)", "setting": "[19]; [29]", "result": 90},
      {"measurement": "Oat, Wild plant response rating (0 to 100 scale)", "setting": "[19]; [30]", "result": 40},
      {"measurement": "Pigweed, Palmer plant response rating (0-100)", "setting": "[20]; [29]", "result": 50},
      {"measurement": "Pigweed, Palmer plant response rating (0 to 100 scale)", "setting": "[20]; [30]", "result": 20},
      {"measurement": "Ragweed plant response rating (0-100)", "setting": "[21]; [29]", "result": 20},
      {"measurement": "Ragweed plant response rating (0 to 100 scale)", "setting": "[21]; [30]", "result": 0},
      {"measurement": "Ryegrass, Italian plant response rating (0-100)", "setting": "[22]; [29]", "result": 60},
      {"measurement": "Ryegrass, Italian plant response rating (0 to 100 scale)", "setting": "[22]; [30]", "result": 0},
      {"measurement": "Soybean plant response rating (0-100)", "setting": "soybean (Glycine max) [23]; [29]", "result": 80},
      {"measurement": "Soybean plant response rating (0 to 100 scale)", "setting": "soybean (Glycine max) [23]; [30]", "result": 50},
      {"measurement": "Wheat plant response rating (0-100)", "setting": "[24]; [29]", "result": 90},
      {"measurement": "Wheat plant response rating (0 to 100 scale)", "setting": "[24]; [30]", "result": 80},
      {"measurement": "Plant response rating, Barnyardgrass (0 to 100 scale, 0 is no effect and 100 is complete control)", "setting": "[25]", "result": 0},
      {"measurement": "Plant response rating, Ducksalad (0 to 100 scale, 0 is no effect and 100 is complete control)", "setting": "[26]", "result": 0},
      {"measurement": "Plant response rating, Rice (0 to 100 scale, 0 is no effect and 100 is complete control)", "setting": "rice (Oryza sativa)", "result": 0},
      {"measurement": "Plant response rating, Sedge, Umbrella (0 to 100 scale, 0 is no effect and 100 is complete control)", "setting": "[27]", "result": 0}
    ]}
  ]
}
